Among the data in US7838522B2, “Benzothiazole formulations and use thereof” (Ares Trading S.A., priority 2004, dated 2010) are bioavailability values, retold here.

A short description of the series: Pharmacokinetic profile after oral administration in Beagle dogs. The series is classed as in vivo. As to conditions: dog, plasma, 10.6 mg/kg, Compound A in Water for Injection. How it is done: Macrogol Glyceride formulations were orally administered in Beagle dogs as extemporaneous suspension in PBS at a dose of 10.6 mg/kg following the protocol below, by gavage in a volume of 2 mL/kg and bulk formulation by forced introduction into the throat.
The formulations were administered to the animals which had fasted overnight (i.e. for about 16 hours) before treatment, food was allowed again 4 hours after treatment.
Macrogol Glyceride formulations (1) and (2) were orally administered as described above. A wash-out interval between the administration of formulation (1) and of formulations (2) was of at least 1 week.
6 Beagle dogs (3 males and 3 females) of about 10-13 kg of bodyweight and of age 9 to 12 months were used. Animals were weighed fasted before administration and the body weight recorded.
Blood (at least 2.5 ml) was collected from a jugular vein into heparinised tubes before and after dosing, at the following 15 times:
Blood was centrifuged within 15 min at about 2500 g at +4° C. for 10 min. Blood cells were discharged and plasma obtained was divided into 3 aliquots (at least 0.3 mL each). The plasma concentrations of Compound A (free base of Compound A, mesylate) in the unknown dog plasma samples was determined by a High Performance Liquid Chromatography/Mass Spectrometry (HPLC/MS). […]

The term bioavailability denotes the share of a dose that reaches the circulation, judged against a reference dose that is usually intravenous. A lower bioavailability goes with poor availability. As for `N#CC(c1ccnc(OCc2ccc(CN3CCOCC3)cc2)n1)c1nc2ccccc2s1` (stereo not shown) [Compound A, 1,3 benzothiazol-2-yl-[2-(4-morpholin-4-ylmethyl-benzyloxy)-pyrimidin-4-yl]-acetonitrile], the bioavailability was below 15%.
